# Experimental data as given in patent EP4273147A1, “SUBSTITUTED SPIROLACTAMS, SALTS THEREOF AND THEIR USE AS HERBICIDALLY ACTIVE SUBSTANCES” (Bayer Aktiengesellschaft, priority 2022, dated 2023).
# What was measured:
# [1] = tested on: VERPE; assay: Herbicidal pre-emergence action, section C (Table C11); assay type: in vivo, Veronica persica; details: application rate 320 g/ha; visual grading after ca. 3 weeks
# [2] = tested on: BRSNW; assay: Post-emergence effects on crop plants (Table F5); assay type: in vivo, Brassica napus; details: crop plant BRSNW
# Text: (§1) 2 to 3 weeks after sowing, the test plants were sprayed in the single-leaf stage.
# [3] = tested on: MATIN; assay: Herbicidal pre-emergence action (Table A4); assay type: in vivo, Matricaria inodora; details: visual grading after ca. 3 weeks
# Method in brief: (§2)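 Double sowing per pot (1 monocot + 1 dicot weed species), sandy loam substrate, seeds covered with soil.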
# [4] = tested on: ALOMY; assay: Herbicidal pre-emergence action, section C (Table C2); assay type: in vivo, Alopecurus myosuroides; details: visual grading after ca. 3 weeks
# Text: Seeds of mono- and dicotyledonous weed plants and crop plants were sown, in plastic or organic planting pots, in sandy loam and covered with soil. The compounds according to the invention, formulated in the form of wettable powders (WP) or as emulsifiable concentrates (EC), were applied to the surface of the covering soil as aqueous suspension or emulsion, with the addition of 0.5% of an additive, at an application rate of 600 1 of water/ha (converted). Following treatment, the pots were placed in a greenhouse and kept under optimum growth conditions for the test plants.
# [5] = tested on: ZEAMX; assay: Pre-emergence effects on crop plants (Table D1); assay type: in vivo, Zea mays; details: crop plant, visual grading after ca. 3 weeks
# Text: (§5) Seeds of mono- and dicotyledonous weed plants and crop plants were sown, in plastic or organic planting pots, in sandy loam and covered with soil. The compounds according to the invention, formulated in the form of wettable powders (WP) or as emulsifiable concentrates (EC), were applied to the surface of the covering soil as aqueous suspension or emulsion, with the addition of 0.5% of an additive, at an application rate of 600 1 of water/ha (converted).
# (§6) Following treatment, the pots were placed in a greenhouse and kept under optimum growth conditions for the test plants.
# [6] = tested on: BRSNW; assay: Pre-emergence effects on crop plants (Table D5); assay type: in vivo, Brassica napus; details: crop plant, visual grading after ca. 3 weeks
# Text: as §5, §6
# [7] = tested on: LOLRI; assay: Herbicidal pre-emergence action (Table A3); assay type: in vivo, Lolium rigidum; details: visual grading after ca. 3 weeks
# Method in brief: as §2
# [8] = tested on: GLXMA; assay: Post-emergence effects on crop plants (Table F4); assay type: in vivo, Glycine max; details: application rate 80 g/ha, crop plant GLXMA
# Text: as §1
# [9] = tested on: STEME; assay: Herbicidal pre-emergence action (Table A6); assay type: in vivo, Stellaria media; details: application rate 320 g/ha; visual grading after ca. 3 weeks
# Method in brief: as §2
# [10] = tested on: LOLRI; assay: Herbicidal pre-emergence action, section C (Table C7); assay type: in vivo, Lolium rigidum; details: application rate 320 g/ha; visual grading after ca. 3 weeks
# [11] = tested on: ORYZA; assay: Post-emergence effects on crop plants (Table F3); assay type: in vivo, Oryza sativa; details: application rate 320 g/ha, crop plant ORYZA
# Text: as §1
# [12] = tested on: TRZAS; assay: Post-emergence effects on crop plants (Table F2); assay type: in vivo, Triticum aestivum; details: crop plant TRZAS
# Text: as §1
# [13] = tested on: TRZAS; assay: Pre-emergence effects on crop plants (Table D2); assay type: in vivo, Triticum aestivum; details: crop plant; application rate 80 g/ha; visual grading after ca. 3 weeks
# Text: as §5, §6
# [14] = tested on: POAAN; assay: Herbicidal pre-emergence action (Table A7); assay type: in vivo, Poa annua; details: application rate 320 g/ha; visual grading after ca. 3 weeks
# Method in brief: as §2
# [15] = tested on: VIOTR; assay: Herbicidal pre-emergence action, section C (Table C12); assay type: in vivo, Viola tricolor; details: visual grading after ca. 3 weeks
# [16] = tested on: ORYZA; assay: Pre-emergence effects on crop plants (Table D3); details: crop plant, visual grading after ca. 3 weeks
# [17] = tested on: ZEAMX; assay: Post-emergence effects on crop plants (Table F1); assay type: in vivo, Zea mays; details: application rate 320 g/ha, crop plant ZEAMX
# Text: as §1
# [18] = tested on: ABUTH; assay: Herbicidal pre-emergence action (Table A1); assay type: in vivo, Abutilon theophrasti; details: application rate 1280 g/ha; visual grading after ca. 3 weeks vs untreated controls (100% = plants have died off, 0% = as control plants)
# Method in brief: as §2
# [19] = tested on: ECHCG; assay: Herbicidal pre-emergence action, section C (Table C6); assay type: in vivo, Echinochloa crus-galli; details: application rate 80 g/ha; visual grading after ca. 3 weeks
# [20] = tested on: ALOMY; assay: Herbicidal post-emergence action, section E (Table E2); assay type: in vivo, Alopecurus myosuroides; details: application rate 320 g/ha; assessed visually after ca. 3 weeks
# Text: as §1
# [21] = tested on: POAAN; assay: Herbicidal post-emergence action (Table B7); assay type: in vivo, Poa annua; details: application rate 320 g/ha
# Method in brief: (§3)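 Visual rating of activity versus untreated plants about 3 weeks after treatment: 0% means no difference from controls, 100% means complete kill. Test weeds were raised from seed in sandy loam under controlled greenhouse conditions and sprayed at the one-leaf stage.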
# [22] = tested on: ECHCG; assay: Herbicidal pre-emergence action (Table A2); assay type: in vivo, Echinochloa crus-galli; details: visual grading after ca. 3 weeks
# Method in brief: as §2
# [23] = tested on: SETVI; assay: Herbicidal pre-emergence action, section C (Table C10); assay type: in vivo, Setaria viridis; details: visual grading after ca. 3 weeks
# [24] = tested on: MATIN; assay: Herbicidal post-emergence action (Table B6); assay type: in vivo, Matricaria inodora; details: application rate 1280 g/ha; rated visually after about 3 weeks
# Protocol: (§4) Seeds of mono- and dicotyledonous weed plants were placed in plastic pots in sandy loam soil (doubly sown with in each case one species of mono- or dicotyledonous weed plants per pot), covered with soil and cultivated in a greenhouse under controlled growth conditions. 2 to 3 weeks after sowing, the test plants were treated at the one-leaf stage. […] After the test plants had been kept in the greenhouse under optimum growth conditions for about 3 weeks, the activity of the preparations was rated visually in comparison to untreated controls. For example, 100% activity = the plants have died, 0% activity = like control plants.
# [25] = tested on: SETVI; assay: Herbicidal pre-emergence action (Table A5); assay type: in vivo, Setaria viridis; details: application rate 320 g/ha; visual grading after ca. 3 weeks
# Method in brief: as §2
# [26] = tested on: DIGSA; assay: Herbicidal pre-emergence action, section C (Table C5); assay type: in vivo, Digitaria sanguinalis; details: application rate 80 g/ha; visual grading after ca. 3 weeks
# [27] = tested on: AMARE; assay: Herbicidal pre-emergence action (Table A8); assay type: in vivo, Amaranthus retroflexus; details: application rate 1280 g/ha; visual grading after ca. 3 weeks vs untreated controls (100% = plants have died off, 0% = as control plants)
# Text: Seeds of mono- and dicotyledonous weed plants were sown in plastic pots (double sowings with one species of mono- and one species of dicotyledonous weed plants per pot), in sandy loam, and covered with soil.
# [28] = tested on: SETVI; assay: Herbicidal post-emergence action (Table B8); assay type: in vivo, Setaria viridis; details: application rate 1280 g/ha
# Method in brief: as §3
# [29] = tested on: VERPE; assay: Herbicidal pre-emergence action (Table A11); assay type: in vivo, Veronica persica; details: application rate 1280 g/ha; visual grading after ca. 3 weeks
# Method in brief: as §2
# [30] = tested on: MATIN; assay: Herbicidal pre-emergence action, section C (Table C8); assay type: in vivo, Matricaria inodora; details: application rate 320 g/ha; visual grading after ca. 3 weeks
# [31] = tested on: GLXMA; assay: Pre-emergence effects on crop plants (Table D4); assay type: in vivo, Glycine max; details: crop plant; application rate 320 g/ha; visual grading after ca. 3 weeks
# Text: as §5, §6
# [32] = tested on: DIGSA; assay: Herbicidal pre-emergence action (Table A12); assay type: in vivo, Digitaria sanguinalis; details: application rate 320 g/ha; visual grading after ca. 3 weeks
# Method in brief: as §2
# [33] = tested on: LOLRI; assay: Herbicidal post-emergence action (Table B5); assay type: in vivo, Lolium rigidum; details: application rate 1280 g/ha; rated visually after about 3 weeks
# Protocol: as §4
# [34] = tested on: VIOTR; assay: Herbicidal post-emergence action, section E (Table E10); assay type: in vivo, Viola tricolor; details: application rate 320 g/ha; assessed visually after ca. 3 weeks
# Text: as §1
# [35] = tested on: POLCO; assay: Herbicidal pre-emergence action, section C (Table C9); assay type: in vivo, Polygonum convolvulus; details: application rate 320 g/ha; visual grading after ca. 3 weeks
# [36] = tested on: ALOMY; assay: Herbicidal pre-emergence action (Table A9); assay type: in vivo, Alopecurus myosuroides; details: application rate 1280 g/ha; visual grading after ca. 3 weeks
# Method in brief: as §2
# [37] = tested on: ABUTH; assay: Herbicidal pre-emergence action, section C (Table C1); assay type: in vivo, Abutilon theophrasti; details: application rate 320 g/ha; visual grading after ca. 3 weeks
# [38] = tested on: ECHCG; assay: Herbicidal post-emergence action (Table B3); assay type: in vivo, Echinochloa crus-galli; details: application rate 1280 g/ha; rated visually after about 3 weeks
# Method in brief: as §3
# [39] = tested on: KCHSC; assay: Herbicidal pre-emergence action (Table A10); assay type: in vivo, Kochia scoparia; details: application rate 320 g/ha; visual grading after ca. 3 weeks
# Method in brief: as §2
# [40] = tested on: ECHCG; assay: Herbicidal post-emergence action, section E (Table E5); assay type: in vivo, Echinochloa crus-galli; details: application rate 320 g/ha; assessed visually after ca. 3 weeks
# Text: as §1
smiles,measurement,setting,value
O=C1N(Cc2cccc(F)c2F)CCCC12CCCN(Cc1cccc(F)c1F)C2=O (racemic) [I-012],pre-emergence activity against VERPE,[1],80%
same,post-emergence activity against BRSNW,[2]; application rate 320 g/ha,20%
same,pre-emergence activity against MATIN,[3]; application rate 1280 g/ha,90%
same,pre-emergence activity against ALOMY,[4]; application rate 80 g/ha,90%
same,pre-emergence activity against ZEAMX,[5]; application rate 80 g/ha,20%
same,pre-emergence activity against BRSNW,[6]; application rate 320 g/ha,0%
same,pre-emergence activity against LOLRI,[7]; application rate 1280 g/ha,100%
same,post-emergence activity against GLXMA,[8],0%
same,pre-emergence activity against STEME,[9],90%
same,pre-emergence activity against LOLRI,[10],100%
same,post-emergence activity against ORYZA,[11],10%
same,post-emergence activity against TRZAS,[12]; application rate 80 g/ha,0%
same,pre-emergence activity against TRZAS,[13],20%
same,pre-emergence activity against POAAN,[14],100%
same,pre-emergence activity against VIOTR,[15]; application rate 320 g/ha,80%
same,pre-emergence activity against ORYZA,[16]; application rate 320 g/ha,10%
same,post-emergence activity against ZEAMX,[17],0%
same,pre-emergence activity against ABUTH,[18],90%
same,pre-emergence activity against ECHCG,[19],100%
same,post-emergence activity against ALOMY,[20],80%
same,post-emergence activity against POAAN,[21],100%
same,pre-emergence activity against ECHCG,[22]; application rate 320 g/ha,100%
same,pre-emergence activity against SETVI,[23]; application rate 320 g/ha,100%
same,post-emergence activity against MATIN,[24],90%
same,pre-emergence activity against SETVI,[25],100%
O=C1N(Cc2ccccc2F)CCC12CCCN(Cc1c(F)cccc1F)C2=O (racemic) [I-024],pre-emergence activity against VERPE,[1],90%
same,pre-emergence activity against DIGSA,[26],80%
same,post-emergence activity against BRSNW,[2]; application rate 80 g/ha,0%
same,pre-emergence activity against MATIN,[3]; application rate 320 g/ha,90%
same,pre-emergence activity against ALOMY,[4]; application rate 320 g/ha,90%
same,pre-emergence activity against ZEAMX,[5]; application rate 320 g/ha,0%
same,pre-emergence activity against BRSNW,[6]; application rate 80 g/ha,20%
same,pre-emergence activity against AMARE,[27],90%
same,pre-emergence activity against LOLRI,[7]; application rate 320 g/ha,100%
same,post-emergence activity against SETVI,[28],90%
same,pre-emergence activity against VERPE,[29],90%
same,pre-emergence activity against STEME,[9],90%
same,pre-emergence activity against LOLRI,[10],90%
same,pre-emergence activity against MATIN,[30],90%
same,post-emergence activity against ORYZA,[11],0%
same,pre-emergence activity against GLXMA,[31],0%
same,post-emergence activity against TRZAS,[12]; application rate 320 g/ha,0%
same,pre-emergence activity against TRZAS,[13],0%
same,pre-emergence activity against DIGSA,[32],100%
same,pre-emergence activity against POAAN,[14],100%
same,pre-emergence activity against VIOTR,[15]; application rate 80 g/ha,90%
same,post-emergence activity against LOLRI,[33],90%
same,pre-emergence activity against ORYZA,[16]; application rate 80 g/ha,0%
same,post-emergence activity against VIOTR,[34],80%
same,post-emergence activity against ZEAMX,[17],0%
same,pre-emergence activity against ABUTH,[18],90%
same,pre-emergence activity against ECHCG,[19],100%
same,post-emergence activity against ALOMY,[20],80%
same,pre-emergence activity against POLCO,[35],90%
same,pre-emergence activity against ALOMY,[36],90%
same,pre-emergence activity against ABUTH,[37],90%
same,pre-emergence activity against ECHCG,[22]; application rate 1280 g/ha,100%
same,pre-emergence activity against SETVI,[23]; application rate 80 g/ha,100%
same,post-emergence activity against MATIN,[24],90%
same,pre-emergence activity against SETVI,[25],100%
same,post-emergence activity against ECHCG,[38],90%
same,pre-emergence activity against KCHSC,[39],90%
same,post-emergence activity against ECHCG,[40],90%
